Several values for one entry are separate records, joined by “and”; a condition that tells them apart may be missing. Identical values can stand only once.
Tested on: Rattus norvegicus
Experiment: Antiinflammatory activity in Wistar rat model of carrageenan-induced paw edema assessed as reduction in thickness of paw edema at 10 mg/kg, ip pretreated for 1 hr followed by carrageenan challenge and measured after 1 hr (reference value: 2.41 +/-0.05 mm)
Assay type: functional
Settings: time 1 hr after carrageenan

SMILES	Activity [mm]
COc1cc(/C=C/C(=O)/C=C(O)/C=C/c2ccc(OC(=O)CCN)c(OC)c2)ccc1OC(=O)CCN.Cl.Cl	0.74

Tested on: Rattus norvegicus
Experiment: Anti-inflammatory activity in Wistar rat assessed as inhibition of carrageenan-induced paw edema at 10 mg/kg, ip pretreated for 1 hr followed by carrageenan challenge and measured after 1 hr relative to control (reference value: 0.00 +/-0.02 %)
Assay type: functional
Settings: time 2 hrs

SMILES	inhibition in vivo at 10 mg/kg [%]
COc1cc(/C=C/C(=O)/C=C(O)/C=C/c2ccc(OC(=O)CCN)c(OC)c2)ccc1OC(=O)CCN.Cl.Cl	69

Tested on: Mus musculus
Experiment: Analgesic activity in albino mouse assessed as protection at 10 mg/kg, ip measured after 120 mins by hot plate test relative to indomethacin
Assay type: functional
Settings: 2 h

SMILES	Activity [%]
COc1cc(/C=C/C(=O)/C=C(O)/C=C/c2ccc(OC(=O)CCN)c(OC)c2)ccc1OC(=O)CCN.Cl.Cl	85.5

Tested on: Mus musculus
Experiment: Analgesic activity in albino mouse assessed as protection at 10 mg/kg, ip measured after 30 mins by hot plate test (reference value: 0 %)
Assay type: functional
Settings: 0.5 h

SMILES	Activity [%]
COc1cc(/C=C/C(=O)/C=C(O)/C=C/c2ccc(OC(=O)CCN)c(OC)c2)ccc1OC(=O)CCN.Cl.Cl	8.8

Tested on: Mus musculus
Experiment: Analgesic activity in albino mouse assessed as forepaw licking/jumping latency time at 10 mg/kg, ip measured after 60 mins by hot plate test (reference value: 3.42 +/- 0.03 sec)
Assay type: functional
Settings: 1 h

SMILES	Time [s]
COc1cc(/C=C/C(=O)/C=C(O)/C=C/c2ccc(OC(=O)CCN)c(OC)c2)ccc1OC(=O)CCN.Cl.Cl	5.2

Tested on: Mus musculus
Experiment: Analgesic activity in albino mouse assessed as protection at 10 mg/kg, ip measured after 120 mins by hot plate test (reference value: 0 %)
Assay type: functional
Settings: 2 h

SMILES	Activity [%]
COc1cc(/C=C/C(=O)/C=C(O)/C=C/c2ccc(OC(=O)CCN)c(OC)c2)ccc1OC(=O)CCN.Cl.Cl	35.9

Tested on: Peritoneal macrophage
Experiment: Antiinflammatory activity in […] mouse Peritoneal macrophages assessed as inhibition of LPS-induced NO production at 10 uM preincubated for 1 hr followed by LPS stimulation measured after 24 hrs by Griess method relative to control (reference value: 0.0 %)
Assay type: functional
Parameters: scale not given: the % may be the effect or the level left
Settings: time 25 hrs

SMILES	Activity [%]
COc1cc(/C=C/C(=O)/C=C(O)/C=C/c2ccc(OC(=O)CCN)c(OC)c2)ccc1OC(=O)CCN.Cl.Cl	41.68

Tested on: Mus musculus
Experiment: Analgesic activity in albino mouse assessed as forepaw licking/jumping latency time at 10 mg/kg, ip measured after 120 mins by hot plate test (reference value: 2.62 +/- 0.06 sec)
Assay type: functional
Settings: 2 h

SMILES	Time [s]
COc1cc(/C=C/C(=O)/C=C(O)/C=C/c2ccc(OC(=O)CCN)c(OC)c2)ccc1OC(=O)CCN.Cl.Cl	3.56

Tested on: not listed separately
Experiment: Ulcerogenic activity in fasted albino mouse assessed as average number of ulcers in gastric mucosa at 10 mg/kg, po for 3 days (reference value: 0)
Assay type: toxicity, organism-based
Settings: in vivo, 72 h, time 3 day

SMILES	Activity
COc1cc(/C=C/C(=O)/C=C(O)/C=C/c2ccc(OC(=O)CCN)c(OC)c2)ccc1OC(=O)CCN.Cl.Cl	0

Tested on: Peritoneal macrophage
Experiment: Antiinflammatory activity in […] mouse Peritoneal macrophages assessed as reduction in LPS-induced NO production by measuring reduction in stimulation index at 10 uM preincubated for 1 hr followed by LPS stimulation measured after 24 hrs by Griess method (reference value: 27.31 +/- 2.56 uM)
Assay type: functional
Settings: time 25 hrs

SMILES	Activity [µM]
COc1cc(/C=C/C(=O)/C=C(O)/C=C/c2ccc(OC(=O)CCN)c(OC)c2)ccc1OC(=O)CCN.Cl.Cl	15.93

Tested on: Rattus norvegicus
Experiment: Anti-inflammatory activity in Wistar rat assessed as inhibition of carrageenan-induced paw edema at 10 mg/kg, ip pretreated for 1 hr followed by carrageenan challenge and measured after 3 hr relative to control (reference value: 0.00 +/-0.1 %)
Assay type: functional
Settings: time 4 hrs

SMILES	inhibition in vivo at 10 mg/kg [%]
COc1cc(/C=C/C(=O)/C=C(O)/C=C/c2ccc(OC(=O)CCN)c(OC)c2)ccc1OC(=O)CCN.Cl.Cl	77

Tested on: Splenocyte
Experiment: Immunomodulatory activity in Swiss albino mouse splenocytes assessed as cell viability at 10 uM by measuring inhibition of stimulation index incubated for 72 hrs in presence of mitogenic stimulus phytohaemagglutinin by MTT assay relative to indomethacin
Assay type: functional
Settings: read-out: Activity

SMILES	viability at 10 µM [%]
COc1cc(/C=C/C(=O)/C=C(O)/C=C/c2ccc(OC(=O)CCN)c(OC)c2)ccc1OC(=O)CCN.Cl.Cl	87.4

Tested on: not listed separately
Experiment: Ulcerogenic activity in fasted albino mouse assessed as ulcer index in gastric mucosa at 10 mg/kg, po for 3 days (reference value: 0)
Assay type: toxicity, organism-based
Settings: in vivo, 72 h, time 3 day

SMILES	UI
COc1cc(/C=C/C(=O)/C=C(O)/C=C/c2ccc(OC(=O)CCN)c(OC)c2)ccc1OC(=O)CCN.Cl.Cl	0

Tested on: Rattus norvegicus
Experiment: Anti-inflammatory activity in Wistar rat assessed as inhibition of carrageenan-induced paw edema at 10 mg/kg, ip pretreated for 1 hr followed by carrageenan challenge and measured after 4 hr relative to indomethacin
Assay type: functional
Settings: time 5 hrs

SMILES	inhibition in vivo at 10 mg/kg [%]
COc1cc(/C=C/C(=O)/C=C(O)/C=C/c2ccc(OC(=O)CCN)c(OC)c2)ccc1OC(=O)CCN.Cl.Cl	102

Tested on: Pseudomonas aeruginosa
Experiment: Antibacterial activity against Pseudomonas aeruginosa ATCC 27853 incubated for 18 hrs by agar dilution assay
Assay type: functional
Settings: not given

MIC	SMILES
1 µg/mL and 1.71 µM	COc1cc(/C=C/C(=O)/C=C(O)/C=C/c2ccc(OC(=O)CCN)c(OC)c2)ccc1OC(=O)CCN.Cl.Cl

Tested on: not listed separately
Experiment: Ulcerogenic activity in fasted albino mouse assessed as incidence of gastric ulceration at 10 mg/kg, po for 3 days (reference value: 0 %)
Assay type: toxicity, organism-based
Settings: in vivo, 72 h, time 3 day

SMILES	Activity [%]
COc1cc(/C=C/C(=O)/C=C(O)/C=C/c2ccc(OC(=O)CCN)c(OC)c2)ccc1OC(=O)CCN.Cl.Cl	0

Tested on: not listed separately
Experiment: Toxicity in albino mouse assessed as induction of toxic symptoms at 50 to 100 mg/kg, ip measured after 24 hrs
Assay type: organism-based
Settings: in vivo, dose 50-100 mg/kg

SMILES	Activity
COc1cc(/C=C/C(=O)/C=C(O)/C=C/c2ccc(OC(=O)CCN)c(OC)c2)ccc1OC(=O)CCN.Cl.Cl	Non-Toxic

Tested on: Candida albicans
Experiment: Antifungal activity against Candida albicans incubated for 18 to 24 hrs by CLSI method
Assay type: functional
Settings: time 18-24 hrs

MIC	SMILES
0.5 µg/mL and 0.857 µM	COc1cc(/C=C/C(=O)/C=C(O)/C=C/c2ccc(OC(=O)CCN)c(OC)c2)ccc1OC(=O)CCN.Cl.Cl

Tested on: Mus musculus
Experiment: Analgesic activity in albino mouse assessed as protection at 10 mg/kg, ip measured after 60 mins by hot plate test (reference value: 0 %)
Assay type: functional
Settings: 1 h

SMILES	Activity [%]
COc1cc(/C=C/C(=O)/C=C(O)/C=C/c2ccc(OC(=O)CCN)c(OC)c2)ccc1OC(=O)CCN.Cl.Cl	52

Tested on: Rattus norvegicus
Experiment: Antiinflammatory activity in Wistar rat model of carrageenan-induced paw edema assessed as reduction in thickness of paw edema at 10 mg/kg, ip pretreated for 1 hr followed by carrageenan challenge and measured after 3 hrs (reference value: 1.79 +/-0.07 mm)
Assay type: functional
Settings: time 4 hrs

SMILES	Activity [mm]
COc1cc(/C=C/C(=O)/C=C(O)/C=C/c2ccc(OC(=O)CCN)c(OC)c2)ccc1OC(=O)CCN.Cl.Cl	0.42
